Laboratory results as given in patent US20260265690A1, “Epithelial Stem Cells and Production and Uses thereof” (Stemson Therapeutics Corp., priority 2022, published 2026).

Assays:
Format in all cases: cell-based, human
[1] = tested on: hiPSC-EPSCs; test: Colony formation assay (CFA) on 3T3 fibroblast feeders; conditions: small molecules added to expansion medium at passage 4; 2.5 μM CHIR99021, 1 μM DMH-1, 2.5 μM A-83-01; CFA at p7, 1K/well, 10 days
Description: FIGS. 2A-2D show characterization of hiPSC-EPSC in vitro. […] For CFA, different hiPSC-EPSC lines (EP61, EP112 and EP116) and control HF-KC were subcultured for 3 passages (p3) then plated on 3T3 fibroblast feeders at 1K/well and incubated for additional 10 days, then fixed and stained with Crystal violet. […] Hair follicle derived keratinocytes (HFKC) are used as reference cells. […] Ns: p>0.05; *: p<0.05; ** p<0.01; *** p<0.001; ****: p<0.0001. […] Note nuclear localization of 3-Cat, a hallmark of Wnt signaling activation in hiPSC-EPSC but not in HF-KC (arrows).
(§1) FIGS. 3A-3E show activation of Wnt signaling pathway via GSK3 inhibition enables long-term expansion of hiPSC-EPSC. […] The clonogenicity of hiPSC-EPSCs was diminishing as a result of serial passaging. […] For CFA, hiPSC-EPSCs were cultured for 7 weeks (p7) with or without small molecule inhibitors, then plated on 3T3 fibroblast feeders at 1K/well and incubated for additional 10 days, then fixed and stained with Crystal violet. The plates were scanned and analyzed using imaging software to determine the confluency. The confluency data from three experiments is summarized in the graph (right panel). […] The graph is showing the percentage of proliferating (Ki67+) hiPSC-EPSC over total nuclei (DAPI+). *: p<0.05. […] Data was analyzed using standard ddCt method and shown as mean±s.d. of the expression from three independent experiments. *: p<0.05; ****: p<0.01. […] Data are represented as a heatmap, where results from eight independent differentiation experiments were averaged and z-scores were calculated for each timepoint represented.
(§2) Despite EPSCs having substantial self-renewal capability in vivo, the prolonged expansion in vitro of EPSC isolated from various tissues has remained challenging. It is well documented that in conventional cultures, freshly isolated EPSCs rapidly lose their clonogenicity and stem cell marker expression signature. Inoue et al, Lab invest. 2009 August, 89(8):844-56; Ohyama et al., J Clin Invest. 2006 January, 116(1):249-60; Yang et al., Stem Cell Research & Therapy (2020) 11:303. […]

[2] = tested on: Wnt pathway genes LEF1, TCF4, LGR6 in hiPSC-EPSC; test: qPCR gene expression analysis of Wnt signaling pathway genes; conditions: ddCt, hiPSC-EPSC treated with CHIR-99021
Description: as §1
as §2, with “invest.” for “invest. 2009 August, 89(8):844-56; Ohyama et al., J Clin Invest. 2006 January, 116(1):249-60; Yang et al., Stem Cell Research & Therapy (2020) 11:303.”

[3] = tested on: HF organoids of hiPSC-EPSC with dermal papilla (DP) cells; test: 3D hair follicle organoid assay (roundness/elongation score); conditions: 2.5 μM added to EPSC and organoid culture
Description: FIGS. 4A-4D show in vitro functional analysis of hiPSC-EPSC in 3D tissue constructs. […] Bottom panel illustrates an organoid development process of using an example of an organoid created by combining fluorescently labeled (red) dermal papilla (DP) cells with HF-KCs. […] Measurement is obtained with CYTATION™ 5 software. Each color represents a different cell combination, and each dot represents a single organoid. The percentage of elongated organoids was increased when hiPSC-EPSC were treated with CHIR-99021. […] Neonatal foreskin-derived keratinocytes (HFK) were used as a control. […]
The stable hiPSC-EPSC with features of HF bulge EPSC described above were investigated as to whether they were receptive to specific mesenchymal stimuli and capable of creating complex multilayered tissues. […] To quantitively assess the organoids elongation and provide an indicator of hiPSC-EPSC functionality in vitro, an automated computational image-based analysis was employed that calculates the roundness of the generated 3D structures, assigning values between 1 and 0, where 1 represents a perfectly round object and 0 a long shaped one. By plotting time-lapse values of roundness score in a graph, the ability of iPSC-EPSC cells to generate elongated structure in combination with DP cells (FIG. 4C) was quantified. […]

[4] = tested on: hiPSC-EPSC; test: Ki67 immunofluorescent analysis of proliferating cells; conditions: hiPSC-EPSC treated with CHIR-99021 vs untreated cells
Description: as §1
Immunocytochemistry: Cells were cultured and imaged in 96 well plates. Briefly, media was aspirated, and wells rinsed once with PBS for 2 minutes. Cells were fixed with 4% formaldehyde for 10 minutes at RT, followed by two washes with PBS. […]

[5] = tested on: passage 4 hiPSC-EPSCs; test: Bulk RNA-seq of HF bulge EPSC marker expression; conditions: CHIR-99021 vs DMSO
Description: FIGS. 3A-3E show activation of Wnt signaling pathway via GSK3 inhibition enables long-term expansion of hiPSC-EPSC. […] The clonogenicity of hiPSC-EPSCs was diminishing as a result of serial passaging. […] For CFA, hiPSC-EPSCs were cultured for 7 weeks (p7) with or without small molecule inhibitors, then plated on 3T3 fibroblast feeders at 1K/well and incubated for additional 10 days, then fixed and stained with Crystal violet. The plates were scanned and analyzed using imaging software to determine the confluency. The confluency data from three experiments is summarized in the graph (right panel). […] Data was analyzed using standard ddCt method and shown as mean±s.d. of the expression from three independent experiments. *: p<0.05; ****: p<0.01. […] Data are represented as a heatmap, where results from eight independent differentiation experiments were averaged and z-scores were calculated for each timepoint represented.
Bulk RNA-sequencing: RNA was extracted from each sample and quantified with Qubit. cDNA libraries were generated using the NEB library kit. All libraries were then quantified, pooled, and sequenced on Illumina platforms. Reads were first analyzed by fastQC and then trimmed for low-quality bases with Trimmomatic. Clean reads were then aligned to the human reference genome (GRCh38) with Ensembl gene annotation using STAR software. […]

| Compound | clonogenicity of hiPSC-EPSCs [1] | expression of Wnt pathway genes including LEF1, TCF4, and LGR6 [2] | percentage of elongated organoids [3] | number of proliferating (Ki67+) cells [4] | expression of HF bulge EPSC markers including KRT15, CD59, TP63, ITGA6, DKK3, SOX9, and NFATC1 [5] |
| --- | --- | --- | --- | --- | --- |
| Cc1cccc(-c2nn(C(=S)Nc3ccccc3)cc2-c2ccnc3ccccc23)n1 [A-83-01] | not BMP or TGF-β inhibitors, preserved clonogenicity | – | – | – | – |
| Cc1c[nH]c(-c2cnc(NCCNc3ccc(C#N)cn3)nc2-c2ccc(Cl)cc2Cl)n1 [CHIR-99021, 6-((2-((4-(2,4-Dichlorophenyl)-5-(4-methyl-1H-imidazol-2-yl)pyrimidin-2-yl)amino)ethyl)amino)nicotinonitrile] | preserved clonogenicity | upregulation | increased | significantly higher number of proliferating cells | increased the expression |
| CC(C)Oc1ccc(-c2cnc3c(-c4ccnc5ccccc45)cnn3c2)cc1 [DMH-1] | not BMP or TGF-β inhibitors, preserved clonogenicity | – | – | – | – |
